This passage reports binding and Kd results from PMC9737911 (2022).

Molecules are shown by their SMILES.

Assay [1] relates to OT-Bea-4bp (DNA, aptamer) CGATCGGGTGTGGGTGGCGTAAAGGGAGCATCG
Nature of the assay: fluorescence quenching (FAM/BHQ1 beacon), single concentration. The settings on record: 120 mM NaCl, 2 mM CaCl2; highest concentration tested 200 nM; no quenching.

The subject of assay [2] is OT-Bea-1bp (DNA, aptamer) TCGGGTGTGGGTGGCGTAAAGGGAGCA
The assay is described as above. The settings on record: 120 mM NaCl, 20 mM CaCl2; 20 mM Tris-HCl pH 7.5; 50 nM probe, 500 nM OTA; negligible fluorescence change.

The test system of assay [3] is OT-Bea-4bp (DNA, aptamer) CGATCGGGTGTGGGTGGCGTAAAGGGAGCATCG
Briefly: fluorescence quenching titration (FAM/BHQ1 beacon). The settings on record: 120 mM NaCl, 2 mM CaCl2; 20 mM Tris-HCl pH 8.5, 0.1% Tween 20, room temperature, 50 nM probe.

For assay [4], the system named is OT-Bea-5bp (DNA, aptamer) GCGATCGGGTGTGGGTGGCGTAAAGGGAGCATCGC
Briefly: fluorescence quenching (FAM/BHQ1 beacon), single concentration. The settings on record: 120 mM NaCl, 20 mM CaCl2; 20 mM Tris-HCl pH 7.5; 50 nM probe, 500 nM OTA; small signal change.

Assay [5] deals with OT-Bea-3bp (DNA, aptamer) GATCGGGTGTGGGTGGCGTAAAGGGAGCATC
The description is as above. The settings on record: 120 mM NaCl, 20 mM CaCl2; 20 mM Tris-HCl pH 7.5; 50 nM probe, 500 nM OTA; 41% quenching.

Assay [6] has as its system OT-Bea-2bp (DNA, aptamer) ATCGGGTGTGGGTGGCGTAAAGGGAGCAT
The assay is described as above. The settings on record: 120 mM NaCl, 20 mM CaCl2; 20 mM Tris-HCl pH 7.5; 50 nM probe, 500 nM OTA; 37% quenching.

`C[C@@H]1Cc2ccc(C(=O)N[C@@H](Cc3ccccc3)C(=O)O)c(O)c2C(=O)O1`: the binding entry in assay [1] was “no”.

On to `CCCC[C@@H](C)[C@@H](OC(=O)C[C@@H](CC(=O)O)C(=O)O)[C@H](C[C@@H](C)C[C@H](O)CCCC[C@@H](O)C[C@H](O)[C@H](C)N)OC(=O)C[C@@H](CC(=O)O)C(=O)O`, for which, in assay [1], the binding result is on record as “no”.

With `CCCC[C@@H](C)[C@@H](OC(=O)C[C@@H](CC(=O)O)C(=O)O)[C@H](C[C@@H](C)CCCCCC[C@@H](O)C[C@H](O)[C@H](C)N)OC(=O)C[C@@H](CC(=O)O)C(=O)O`, the binding entry in assay [1] was “no”.

Turning to `C[C@@H]1Cc2c(Cl)cc(C(=O)N[C@@H](Cc3ccccc3)C(=O)O)c(O)c2C(=O)O1`, the binding result in assay [2] is “weak”; in assay [4], “yes”; in assay [5], “yes”; in assay [6] it was “yes”. This molecule also gave a Kd in assay [3] of 16 ± 2 nM.

For `C[C@H]1CCCC(=O)CCC/C=C/c2cc(O)cc(O)c2C(=O)O1`, the binding result in assay [1] is “no”.
